Laboratory results published in publication PMC3252880, “Synthesis of 2-amino-3-arylpropan-1-ols and 1-(2,3-diaminopropyl)-1,2,3-triazoles and evaluation of their antimalarial activity” (Beilstein Journal of Organic Chemistry, 2011).
Several values for one entry are separate records, joined by “and”; a condition that tells them apart may be missing. Identical values can stand only once. Like-named read-outs stand apart in the source and are kept apart here.

Key:
[1] = system: chloroquine-sensitive (CQS) strain of P. falciparum (D10); assay: in vitro antiplasmodial activity, chloroquine-sensitive strain D10; format: cell-based, Plasmodium falciparum; conditions: for antiplasmodial activity (in words): in vitro, P. falciparum
Method: All samples were tested in triplicate on one occasion against a chloroquine-sensitive (CQS) strain of P. falciparum (D10). […] The antiplasmodial and cytotoxicity assays were performed as described previously.

[2] = system: Chinese hamster ovary (CHO) cell-line; assay: in vitro cytotoxicity against CHO cell-line; format: cell-based; conditions: for IC50: read-out: CHO: IC50; for SI (Selectivity Index) = IC50 CHO/IC50 D10: ratio CHO/D10
Method: At first, compounds 6a–c, 8a–e, 9a–d, 12a,b, 14a–e, 15a–f and 16a–g were screened for in vitro antiplasmodial activity. All samples were tested in triplicate on one occasion against a chloroquine-sensitive (CQS) strain of P. falciparum (D10). Those samples showing antiplasmodial activity were then tested in triplicate on one occasion against a chloroquine-resistant (CQR) strain of P. falciparum (Dd2) and screened for in vitro cytotoxicity against a Chinese hamster ovary (CHO) cell-line, in triplicate on one occasion. The antiplasmodial and cytotoxicity assays were performed as described previously.

[3] = system: chloroquine-resistant (CQR) strain of P. falciparum (Dd2); assay: in vitro antiplasmodial activity, chloroquine-resistant strain Dd2; format: cell-based, Plasmodium falciparum; conditions: for RI (Resistance Index) = IC50 Dd2/IC50 D10: ratio Dd2/D10
P. berghei = system: P. berghei; parameters: method as in PMID 17194200, PMID 14500986; conditions: in vivo; cited from earlier work
P. falciparum = system: P. falciparum; parameters: method as in PMID 17194200, PMID 14500986; conditions: cited from earlier work
[4] = CQS strain D10, tested in triplicate on one occasion, hydrophobic samples added as suspension, read-out: D10: IC50
[5] = CHO cell-line, in triplicate on one occasion
[6] = CQR strain Dd2, tested in triplicate on one occasion, read-out: Dd2: IC50
[7] = Plasmodium falciparum, DD2, read-out: Dd2: IC50
[8] = Plasmodium falciparum, D10, CQS strain D10, tested in triplicate on one occasion, hydrophobic samples added as suspension, read-out: D10: IC50
[9] = Plasmodium falciparum, D10, read-out: D10: IC50, CQS strain D10, tested in triplicate on one occasion, hydrophobic samples added as suspension
[10] = read-out: D10: IC50, CQS strain D10, tested in triplicate on one occasion, hydrophobic samples added as suspension
[11] = Cricetulus griseus, CHO cell-line, in triplicate on one occasion
[12] = Plasmodium falciparum, CQR strain Dd2, tested in triplicate on one occasion, read-out: Dd2: IC50

`COC(c1ccccc1)C(CO)NC(C)C` (racemic) [Compound 8a] gave an IC50 [1, 4] of 370 µM.

In the case of `COC(c1ccccc1)C(CO)NCc1ccccc1` (racemic) [Compound 8b], the IC50 [1, 4] is reported as 144 µM.

Work on `COC(c1ccc(Cl)cc1)C(CO)NCc1ccccc1` (racemic) [Compound 8c] yielded an IC50 [1, 4] of 199 µM.

For `COc1ccc(C(OC)C(CO)NCC(C)C)cc1` (racemic) [Compound 8d], the IC50 [2, 5] was greater than 530 µM, the IC50 [3, 6] was 25.7 µM and the “RI (Resistance Index) = IC50 Dd2/IC50 D10” value [3] was 0.7. It also gave an IC50 [1, 4] of 38.6 µM.

In the case of `CCCNC(CO)C(OC)c1ccccc1F` (racemic) [Compound 8e], the IC50 [2, 5] is reported as greater than 530 µM, the IC50 [3, 6] is reported as 21.9 µM and the “RI (Resistance Index) = IC50 Dd2/IC50 D10” value [3] is reported as 0.6. The IC50 [1, 4] was 38.5 µM.

In the case of `OCC(NCc1ccccc1)C(O)c1ccccc1Cl` (racemic) [Compound 9b], the IC50 [2, 5] is reported as greater than 530 µM, the IC50 [3, 6] is reported as 13.6 µM and the “RI (Resistance Index) = IC50 Dd2/IC50 D10” value [3] is reported as 0.6. The IC50 [1, 4] was ≤ 25 µM and 21.2 µM.

For `Cc1ccc(C(O)C(CO)NCc2ccccc2)cc1` (racemic) [Compound 9c], the IC50 [1, 4] was 130 µM.

Work on `OCC(NCc1ccc(Cl)cc1)C(O)c1ccccc1` (racemic) [Compound 9d] yielded an IC50 [1, 4] of 80.7 µM.

With `CCN(CC)CCCC(C)Nc1ccnc2cc(Cl)ccc12` (centres unmarked) [CQ, reference compound] the IC50 [3, 7] was 0.0756 µg/mL, the “RI (Resistance Index) = IC50 Dd2/IC50 D10” value [3] was 3.9 and the IC50 ([1]; Plasmodium falciparum, D10, read-out: D10: IC50, CQS strain D10, n = 6 data sets averaged) was 0.0191 µg/mL.

In the case of `OCC(Cc1ccc(Cl)cc1)NCc1ccccc1` (centres unmarked) [Compound 6a], the IC50 [2, 5] is reported as 138 µM, the “SI (Selectivity Index) = IC50 CHO/IC50 D10” value [2] is reported as 11 and the IC50 [3, 6] is reported as 10.9 µM. For the same compound, the “RI (Resistance Index) = IC50 Dd2/IC50 D10” value [3] was 0.9 and the IC50 [1, 4] was ≤ 25 µM and 12.6 µM.

Work on `COc1ccc(CC(CO)NCC(C)C)cc1` (centres unmarked) [Compound 6b] yielded an IC50 [1, 4] of 282 µM.

`CCCNC(CO)Cc1ccccc1F` (centres unmarked) [Compound 6c] showed an IC50 [1, 4] of 217 µM.

With `OCC(NCc1ccccc1)C(O)c1ccc(Cl)cc1` (stereo not drawn) [Compound 9a, anti-2-(N-Benzylamino)-1-(4-chlorophenyl)propan-1,3-diol] the IC50 [2, 5] was greater than 530 µM, the IC50 [3, 6] was 8.47 µM and the “RI (Resistance Index) = IC50 Dd2/IC50 D10” value [3] was 0.3. The IC50 [1, 4] was ≤ 25 µM and 25.2 µM.

`COc1ccccc1[C@@H](O)[C@@H](CO)NC(C)(C)C` [Compound 12a, syn-2-(N-tert-Butylamino)-1-(2-methoxyphenyl)propan-1,3-diol] gave an IC50 [1, 8] of 98.7 µM and a melting point of 112.8 °C.

`CC(C)(C)N[C@H](CO)[C@H](O)c1ccccc1F` [Compound 12b] showed an IC50 [1, 8] of 60.5 µM.

In the case of `[N-]=[N+]=NCC1CN1Cc1ccccc1` (centres unmarked) [Compound 14a, 2-Azidomethyl-1-(phenylmethyl)aziridine], the IC50 ([2]; Cricetulus griseus, CHO) is reported as greater than 530 µM, the IC50 [3, 7] is reported as 467 µM and the “RI (Resistance Index) = IC50 Dd2/IC50 D10” value [3] is reported as 2. The IC50 [1, 9] was 230 µM.

With `[N-]=[N+]=NCC1CN1Cc1ccc(Cl)cc1` (centres unmarked) [Compound 14b] the IC50 [1, 4] was 101 µM.

Work on `COc1ccc(CN2CC2CN=[N+]=[N-])cc1` (centres unmarked) [Compound 14c] yielded an IC50 [1, 4] of 160 µM.

Compound `[N-]=[N+]=NCC1CN1Cc1ccccc1Cl` (centres unmarked) [Compound 14d] has an IC50 [1, 4] of 93.7 µM.

For `[N-]=[N+]=NCC1CN1Cc1cccc(Cl)c1` (centres unmarked) [Compound 14e], the IC50 [1, 4] was 180 µM.

For `c1ccc(CN2CC2Cn2cc(-c3ccccc3)nn2)cc1` (centres unmarked) [Compound 15a, 1-Phenylmethyl-2-[(4-phenyl-1,2,3-triazol-1-yl)methyl]aziridine], the IC50 ([2]; Cricetulus griseus, CHO) was greater than 530 µM, the IC50 [3, 7] was 107 µM and the “RI (Resistance Index) = IC50 Dd2/IC50 D10” value [3] was 3.1. For the same compound, the IC50 [1, 9] was 34.4 µM.

With `Clc1ccc(CN2CC2Cn2cc(-c3ccccc3)nn2)cc1` (centres unmarked) [Compound 15b] the IC50 [1, 4] was 41.3 µM.

With `COc1ccc(CN2CC2Cn2cc(-c3ccccc3)nn2)cc1` (centres unmarked) [Compound 15c] the IC50 ([2]; Cricetulus griseus, CHO) was greater than 530 µM, the IC50 [3, 7] was 55.6 µM and the “RI (Resistance Index) = IC50 Dd2/IC50 D10” value [3] was 2.2. For the same compound, the IC50 [1, 9] was no more than 25 µM, the “antiplasmodial activity (in words)” value [1] was “weak antiplasmodial activity” and the IC50 [1, 10] was 25.7 µM.

For `Cc1ccc(-c2cn(CC3CN3Cc3ccccc3)nn2)cc1` (centres unmarked) [Compound 15d], the IC50 ([2]; Cricetulus griseus, CHO) was greater than 530 µM, the IC50 [3, 7] was 21 µM and the “RI (Resistance Index) = IC50 Dd2/IC50 D10” value [3] was 1. For the same compound, the IC50 [1, 9] was no more than 25 µM, the “antiplasmodial activity (in words)” value [1] was “weak antiplasmodial activity” and the IC50 [1, 10] was 20.4 µM.

Compound `COc1ccc(-c2cn(CC3CN3Cc3ccccc3)nn2)cc1` (centres unmarked) [Compound 15e] has an IC50 [1, 9] of 40.5 µM.

For `CCN(CC)CC(Cn1cc(-c2ccccc2)nn1)NCc1ccccc1` (centres unmarked) [Compound 16a, 3-Diethylamino-2-(phenylmethyl)amino-1-(4-phenyl-1,2,3-triazol-1-yl)propane], the IC50 [2, 11] was greater than 530 µM, the IC50 [3, 12] was 231 µM and the “RI (Resistance Index) = IC50 Dd2/IC50 D10” value [3] was 10.5. The IC50 [1, 4] was 22.1 µM and the IC50 [1, 8] was no more than 25 µM.

In the case of `CCN(CC)CC(Cn1cc(-c2ccccc2)nn1)NCc1ccc(Cl)cc1` (centres unmarked) [Compound 16b], the IC50 [2, 5] is reported as greater than 530 µM, the IC50 [3, 6] is reported as 176 µM and the “RI (Resistance Index) = IC50 Dd2/IC50 D10” value [3] is reported as 6.8. For the same compound, the IC50 [1, 4] was ≤ 25 µM and 25.9 µM.

Compound `CCN(CC)CC(Cn1cc(-c2ccccc2)nn1)NCc1ccc(OC)cc1` (centres unmarked) [Compound 16c] has an IC50 [1, 4] of 140 µM.

`CCN(CC)CC(Cn1cc(-c2ccc(C)cc2)nn1)NCc1ccccc1` (centres unmarked) [Compound 16d] gave an IC50 [1, 4] of 32.5 µM.

Compound `CCN(CC)CC(Cn1cc(-c2ccc(OC)cc2)nn1)NCc1ccccc1` (centres unmarked) [Compound 16e] has an IC50 [1, 8] of 171 µM.

For `CN(C)CC(Cn1cc(-c2ccccc2)nn1)NCc1ccccc1Cl` (centres unmarked) [Compound 16f], the IC50 [2, 11] was 182 µM, the “SI (Selectivity Index) = IC50 CHO/IC50 D10” value [2] was 16.1 and the IC50 [3, 12] was 13 µM. The “RI (Resistance Index) = IC50 Dd2/IC50 D10” value [3] was 1.2.

`CN(C)CC(Cn1cc(-c2ccccc2)nn1)NCc1ccccc1` (centres unmarked) [Compound 16g] gave an IC50 [1, 4] of 69.6 µM.

With `CC[C@H]1CN2CCc3cc(OC)c(OC)cc3[C@@H]2C[C@@H]1C[C@H]1NCCc2cc(OC)c(OC)cc21` [Emetine, reference compound] the IC50 [2, 11] was 0.27 µM.

In the case of `CC(C)NCC(O)COc1cccc2ccccc12` (centres unmarked) [propranolol], the “parasitaemia of P. berghei infections” value (P. berghei) is given as “reduce the parasitaemia” and the “infection of erythrocytes by P. falciparum” value (P. falciparum) is given as “inhibit infection of erythrocytes”.
